Legend:
JAK/STAT signaling = assay: Mesothelial cell exposure to heated PDF in vitro (immunoblot); type: cell-based, human
Procedure: Mesothelial cell exposure to heated PDF in vitro activated JAK/STAT signaling and induced the STAT-associated protein periostin. Heat-sterilization of PDF generates GDPs. A commercially available immortalized human mesothelial cell line was cultured in standard medium, then switched to control medium or heat-sterilized PDF (30:70, medium:PDF)×4 hrs. Heated PDF induced STAT1 phosphorylation, and the pan-JAKi P6 attenuated this (immunoblot doublet, FIG. 1A). After 24 hrs, P6 also attenuated the secretion of the injurious STAT-associated protein periostin into the medium (immunoblot triplet, FIG. 1B). Five characteristics of periostin make it an attractive marker of Pbarrier injury. 1) Periostin is a marker and mediator for the adoption of a mesenchymal phenotype by injured or transformed epithelial cells^73-75. 2) It participates in fibrous healing^76. Others show periostin in the Pbarrier of patients with fibrosis and encapsulating peritoneal sclerosis (Braun et al, ASN poster, 2011). 3) Periostin supports neovascularization^77. 4) It has a bidirectional regulatory relationship with TGF-β^78. 5) It's promoter region has STAT1 and 5 binding sites (www|.|sabiosciences|.|com/chipqpersearch.php?species_id=0&nfactor=n&ninfo=n&ngene=n&B2=Search&src=genecard&factor=Over+200+TF&gene=POSTN). Thus, we can use periostin to affirm JAK/STAT signaling and mesothelial dedifferentiation.

Met-5A cells = assay: Cleaved caspase-3 Western blot after exposure to peritoneal dialysis fluid; type: cell-based; details: 250 nM P6, 24 h; heated PDF, F-PDF, Low GDP-FPDF; FIG. 5N
Procedure: Methods: Met-5A cells were incubated with heated peritoneal dialysis fluid (PDF), filtered (F-PDF) and Low GDP-FPDF with or without 250 nM JAK inhibitor (Jaki) P6, and cells were harvested at 24 h for measuring cleaved caspase-3 by Western blot as an indication of cell death. 100 μg of cell lysate was separated on a 8-16% SDS polyacrylamide gel. Proteins were transferred onto a nitrocellulose membrane, blocked with 5% BSA in TBST and incubated with primary anti-cleaved caspase-3 antibody (1; 1000, Cell Signaling) overnight. After incubation with a HRP conjugated anti-rabbit antibody (1:1500, GE Healthcare UK Ltd, Piscataway, N.J.), protein bands were visualized by chemiluminiscence (Thermo Scientific). GAPDH serves as an internal control.

peritoneal membrane = assay: Rat PD with 4.25% Dianeal (biPDF), peritoneal histology; type: in vivo; details: rats undergoing PD with bioincompatible PDF (biPDF), compared to placebo
From the text: In rats, 10 days of PD with 4.25% Dianeal induced mesothelial cell reactive hyperplasia, fibrosis, inflammation, and JAK1 phosphorylation, all of which are attenuated by a JAK1/2 inhibitor. Visceral and parietal peritoneum respond to biPDF differently^33, 88, so only like tissues were compared across treatments.

[1] = tested on: human peritoneal mesothelial cells; details: cultured human peritoneal mesothelial cells; cited from earlier work

SMILES	secretion of the STAT-associated protein periostin into the medium (JAK/STAT signaling; heated PDF, after 24 hrs, FIG. 1B)	STAT1 phosphorylation induced by heated PDF (JAK/STAT signaling; immortalized human mesothelial cell line, heat-sterilized PDF (30:70, medium:PDF) x 4 hrs, FIG. 1A)	caspase-3 cleavage induced by PDF (indication of cell death) (Met-5A cells)	structural integrity of the peritoneal membrane (peritoneal membrane)	leptin-induced TGFβ synthesis [1]
CC(C)(C)c1nc2c3cc[nH]c(=O)c3c3cc(F)ccc3c2[nH]1 [P6]	attenuated	attenuated	reduced	preserved	–
N#C/C(=C\c1ccc(O)c(O)c1)C(=O)NCc1ccccc1 [AG-490]	–	–	–	–	abolished

Reference: US9198900B2, “Treatment of peritoneal injury using JAK inhibitors” (Los Angeles Biomedical Research Institute at Harbor-UCLA …, priority 2011, dated 2015)
